Laboratory results taken from patent publication US7138486B2, “Insulinotropic hormone derivatives and uses thereof” (The General Hospital Corporation, priority 1986, dated 2006).

Assay: Biological half-life

half-life: 15 to 20 min
SMILES: CC[C@H](C)[C@H](NC(=O)[C@H](Cc1ccccc1)NC(=O)[C@H](CCC(=O)O)NC(=O)[C@H](CCCCN)NC(=O)[C@H](C)NC(=O)[C@H](C)NC(=O)[C@H](CCC(N)=O)NC(=O)CNC(=O)[C@H](CCC(=O)O)NC(=O)[C@H](CC(C)C)NC(=O)[C@H](Cc1ccc(O)cc1)NC(=O)[C@H](CO)NC(=O)[C@H](CO)NC(=O)[C@@H](NC(=O)[C@H](CC(=O)O)NC(=O)[C@H](CO)NC(=O)[C@@H](NC(=O)[C@H](Cc1ccccc1)NC(=O)[C@@H](NC(=O)CNC(=O)[C@H](CCC(=O)O)NC(=O)[C@H](C)NC(=O)[C@H](Cc1cnc[nH]1)NC(=O)[C@H](CCCNC(=N)N)NC(=O)[C@H](CCC(=O)O)NC(=O)[C@H](Cc1ccccc1)NC(=O)[C@H](CCC(=O)O)NC(=O)[C@H](CC(=O)O)NC(=O)[C@@H](N)Cc1cnc[nH]1)[C@@H](C)O)[C@@H](C)O)C(C)C)C(=O)N[C@@H](C)C(=O)N[C@@H](Cc1c[nH]c2ccccc12)C(=O)N[C@@H](CC(C)C)C(=O)N[C@H](C(=O)N[C@@H](CCCCN)C(=O)NCC(=O)N[C@@H](CCCNC(=N)N)C(=O)NCC(=O)O)C(C)C [GLP-1(1-37)]
